US12226395B2, “Composition for preventing or treating neurodegenerative diseases, containing diterpene-based compound” (KOREA RESEARCH INSTITUTE OF BIOSCIENCE AND BIOTECHNOLOGY, priority 2017, dated 2025)
Where two headings read alike, the source gives them in different places. Each block holds one molecule with its values, some of them ahead of it.

What was measured:
Format in all cases: cell-based
[1] = target: T1, Nurr1 (Homo sapiens, UniProt P43354); assay: Nurr1 activity, luciferase reporter analysis in transfected BE(2)C cells; conditions: for Nurr1 activity (luciferase), multiple of 0.1% DMSO control: BE(2)C cells, 20 hours
T1 construct: 3 types of plasmid DNA, including DNA containing Nurr1-LBD and DNA with β-galactosidase, were transfected into BE(2)C cells; expressed in transfected cells; host or cells: BE(2)C cells

[2] = test system: nitric oxide production in microglia BV-2 cells; assay: Inhibition of nitric oxide production in LPS-treated microglia BV-2 cells (Griess reagent); conditions: Mus musculus
Source text: The death of cranial nerve cells due to an inflammatory reaction in a microglia cell has been reported as one of the main causes of degenerative brain diseases such as dementia and Parkinson's disease. (Sarkar S et al., Neurotoxicology, 44, 250-262 (2014); Bower J H et al., Neurology, 67, 494-496 (2006)). Accordingly, the inhibition activity on nitric oxide production, a representative inflammatory factor, was investigated for the compounds isolated from Example 2 in a microglia. Specifically, microglia BV-2 cells were put into a 96-well plate at 5×10^4 cells/well, and cultured for 2 days, followed by incubation with LPS ([…]) for 24 hours with the compound isolated in Example 2 above. The culture supernatant was measured for absorbance at 540 nm using the Griess reagent to quantify nitrite to investigate the amount of nitric oxide production. Minocyline was used as a positive control.

[3] = target: T1, Nurr1; assay: Nurr1 activity, luciferase reporter analysis in transfected BE(2)C cells; conditions: for Nurr1 activity (luciferase), multiple of 0.1% DMSO control: BE(2)C cells, 20 hours; remark: listed apart in the source
Source text: As in Example 2, Nurr1 activity according to the concentration of the diterpene isolated from the extract of Daphne genkwa was confirmed through luciferase analysis.
Specifically, after synthesizing a vector in which the gene having the nucleotide sequence (5′-CTCGGAGGACAGTACTCCG-3 SEQ ID NO:1) to which the GLA4 gene can bind is repeated 8 times to the reporter gene, luciferase, is synthesized, 3 types of plasmid DNA, including DNA containing Nurr1-LBD and DNA with β-galactosidase, were transfected into BE(2)C cells. After 6 hours, the compounds 1 to 10 separated in Example 2 were treated according to the concentrations in Table 1 below. The cells thus treated were cultured in a 5% carbon dioxide incubator at 37° C. for 20 hours, and then luciferase analysis was performed. As a control, 0.1% DMSO was used, and at this time, the activity was increased by multiple, and Amodiaquine was used as a positive control.

[4] = BV-2 cells, LPS 24 hours, nitrite by Griess reagent, read-out: IC50, inhibition of nitric oxide production (Table 4)
[5] = High concentration = 1 μM (Table 1)
[6] = Low concentration = 0.01 μM (Table 1)
[7] = Mid concentration = 0.1 μM (Table 1)
[8] = BV-2, 24 h, read-out: IC50, inhibition of nitric oxide production (Table 4)
[9] = High concentration = 10 μM (Table 1)
[10] = Low concentration = 0.1 μM (Table 1)
[11] = Mid concentration = 1 μM (Table 1)

T1 sequence (P43354 360-595 limits assumed): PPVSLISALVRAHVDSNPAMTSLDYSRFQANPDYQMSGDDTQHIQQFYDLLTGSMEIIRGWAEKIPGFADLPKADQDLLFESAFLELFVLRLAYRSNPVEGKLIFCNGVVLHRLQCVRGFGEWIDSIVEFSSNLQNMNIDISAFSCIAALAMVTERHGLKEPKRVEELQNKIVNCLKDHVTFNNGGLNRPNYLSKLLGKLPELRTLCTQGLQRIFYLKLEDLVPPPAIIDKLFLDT

Nurr1 activity (luciferase), multiple of 0.1% DMSO control ([1]; Low concentration = 5 μM (Table 1)): 0.9 | Nurr1 activity (luciferase), multiple of 0.1% DMSO control ([1]; Mid concentration = 20 μM (Table 1)): 1.8
Structure (SMILES): CCN(CC)Cc1cc(Nc2ccnc3cc(Cl)ccc23)ccc1O [AQ, Amodiaquine, reference compound]

Structure (SMILES): C=C(C)[C@@]12O[C@@]3(c4ccccc4)O[C@@H]1C1[C@@H]4O[C@]4(CO)[C@@H](O)[C@]4(O)C(=O)C(C)=CC4[C@@]1(O3)[C@H](C)[C@H]2OC(C)=O (stereo partly drawn) [Formula 1, (2S,3aR,3cS,4aR,5S,5aS,8bR,9R,10R,10aS)-5,5a-dihydroxy-4a-(hydroxymethyl)-7,9-dimethyl-6-oxo-2-phenyl-10a-(prop-1-en-2-yl)-3a,3b,3c,4a,5,5a,8a,9,10,10a-decahydro-6H-2,8b-epoxyoxireno[2″,3″:6′,7′]azuleno[5′,4′:3,4]benzo[1,2-d][1,3]dioxol-10-yl acetate]
IC50 [2, 4]: 370 ± 150 nM | Nurr1 activity (luciferase), multiple of 0.1% DMSO control [3, 5]: 1.7 | Nurr1 activity (luciferase), multiple of 0.1% DMSO control [3, 6]: 1.0 | Nurr1 activity (luciferase), multiple of 0.1% DMSO control [3, 7]: 1.5

Structure (SMILES): C=C(C)[C@]12C[C@@H](C)[C@@]34O[C@](c5ccccc5)(O[C@@H]1C3[C@H](O)[C@@](O)(COC(=O)c1ccccc1)[C@@H](O)[C@@]1(O)C4C[C@H](C)[C@@H]1O)O2 (stereo partly drawn) [Formula 3, ((2S,3aR,4S,5S,6S,6aR,7S,8S,9bR,10R,11aR)-4,5,6,6a,7-pentahydroxy-8,10-dimethyl-2-phenyl-11a-(prop-1-en-2-yl)dodecahydro-5H-2,9b-epoxyazuleno[5′,4′:3,4]benzo[1,2-d][1,3]dioxol-5-yl)methyl benzoate]
IC50 [2, 8]: 1060 ± 120 nM | Nurr1 activity (luciferase), multiple of 0.1% DMSO control [3, 9]: 1.4 | Nurr1 activity (luciferase), multiple of 0.1% DMSO control [3, 10]: 1.2 | Nurr1 activity (luciferase), multiple of 0.1% DMSO control [3, 11]: 1.4

Structure (SMILES): C=C(C)[C@]12C[C@@H](C)[C@@]34O[C@](c5ccccc5)(O[C@@H]1C3[C@@H]1O[C@]1(COC(=O)c1ccccc1)[C@@H](O)[C@@]1(O)C4C[C@H](C)[C@@H]1O)O2 (stereo partly drawn) [Formula 4, ((2S,3aR,3cS,4aR,5S,5aR,6S,7S,8bR,9R,10aR)-5,5a,6-trihydroxy-7,9-dimethyl-2-phenyl-10a-(prop-1-en-2-yl)dodecahydro-4aH-2,8b-epoxyoxireno[2″,3″:6′,7′]azuleno[5′,4′:3,4]benzo[1,2-d][1,3]dioxol-4a-yl)methyl benzoate]
IC50 [2, 8]: 180 ± 40 nM | Nurr1 activity (luciferase), multiple of 0.1% DMSO control [3, 9]: 1.7 | Nurr1 activity (luciferase), multiple of 0.1% DMSO control [3, 10]: 1.0 | Nurr1 activity (luciferase), multiple of 0.1% DMSO control [3, 11]: 1.4

Structure (SMILES): C=C(C)[C@]1(O)C[C@@H](C)[C@@]2(O)C([C@H]1OC(=O)c1ccccc1)[C@H](O)[C@@](O)(COC(=O)c1ccccc1)[C@@H](O)[C@@]1(O)C2C[C@H](C)[C@@H]1O (stereo partly drawn) [Formula 5, ((2S,3S,3aR,4S,5S,6S,7R,8R,10R,10aR)-7-(benzoyloxy)-3,3a,4,5,6,8,10a-heptahydroxy-2,10-dimethyl-8-(prop-1-en-2-yl)tetradecahydrobenzo[e]azulen-5-yl)methyl benzoate]
IC50 [2, 4]: 4670 ± 3100 nM | Nurr1 activity (luciferase), multiple of 0.1% DMSO control [3, 9]: 1.9 | Nurr1 activity (luciferase), multiple of 0.1% DMSO control [3, 10]: 0.9 | Nurr1 activity (luciferase), multiple of 0.1% DMSO control [3, 11]: 1.2

Structure (SMILES): C=C(C)[C@@]12O[C@@]3(c4ccccc4)O[C@@H]1C1[C@@H]4O[C@]4(CO)[C@@H](O)[C@]4(O)C(=O)[C@@H](C)CC4[C@@]1(O3)[C@H](C)[C@H]2OC(C)=O (stereo partly drawn) [Formula 6, (2S,3aR,3cS,4aR,5S,5aS,7S,8bR,9R,10R,10aS)-5,5a-dihydroxy-4a-(hydroxymethyl)-7,9-dimethyl-6-oxo-2-phenyl-10a-(prop-1-en-2-yl)dodecahydro-6H-2,8b-epoxyoxireno[2″,3″:6′,7′]azuleno[5′,4′:3,4]benzo[1,2-d][1,3]dioxol-10-yl acetate]
IC50 [2, 4]: 250 ± 60 nM | Nurr1 activity (luciferase), multiple of 0.1% DMSO control [3, 5]: 2.4 | Nurr1 activity (luciferase), multiple of 0.1% DMSO control [3, 6]: 1.0 | Nurr1 activity (luciferase), multiple of 0.1% DMSO control [3, 7]: 1.8

Structure (SMILES): C=C(C)[C@]12C[C@@H](C)[C@@]34O[C@](c5ccccc5)(O[C@@H]1C3[C@H](O)[C@@](O)(CO)[C@@H](O)[C@@]1(O)C4C=C(C)[C@@H]1O)O2 (stereo partly drawn) [Formula 7, (2S,3aR,4S,5S,6S,6aR,7S,9bR,10R,11aR)-5-(hydroxymethyl)-8,10-dimethyl-2-phenyl-11a-(prop-1-en-2-yl)-3a,3b,4,5,6,7,9a,10,11,11a-decahydro-6aH-2,9b-epoxyazuleno[5′,4′:3,4]benzo[1,2-d][1,3]dioxole-4,5,6,6a,7-pentaol]
IC50 [2, 4]: 3410 ± 990 nM | Nurr1 activity (luciferase), multiple of 0.1% DMSO control [3, 9]: 2.0 | Nurr1 activity (luciferase), multiple of 0.1% DMSO control [3, 10]: 1.2 | Nurr1 activity (luciferase), multiple of 0.1% DMSO control [3, 11]: 2.6

Structure (SMILES): C=C(C)[C@]12C[C@@H](C)[C@@]34O[C@](c5ccccc5)(O[C@@H]1C3[C@@H]1O[C@]1(CO)[C@@H](O)[C@@]1(O)C4C[C@H](C)[C@@H]1O)O2 (stereo partly drawn) [Formula 8, (2S,3aR,3cS,4aR,5S,5aR,6S,7S,8bR,9R,10aR)-4a-(hydroxymethyl)-7,9-dimethyl-2-phenyl-10a-(prop-1-en-2-yl)dodecahydro-5aH-2,8b-epoxyoxireno[2″,3″:6′,7′]azuleno[5′,4′:3,4]benzo[1,2-d][1,3]dioxole-5,5a,6-triol]
IC50 [2, 4]: 1220 ± 130 nM | Nurr1 activity (luciferase), multiple of 0.1% DMSO control [3, 9]: 1.6 | Nurr1 activity (luciferase), multiple of 0.1% DMSO control [3, 10]: 1.7 | Nurr1 activity (luciferase), multiple of 0.1% DMSO control [3, 11]: 2.0 | Nurr1 activation (in words) ([3]; no concentration stated): better effect of increasing Nurr1 activity

Structure (SMILES): C=C(C)[C@]12C[C@@H](C)[C@@]34O[C@](c5ccccc5)(O[C@@H]1C3[C@@H]1O[C@]1(CO)[C@@H](O)[C@]1(O)C(=O)[C@@H](C)CC41)O2 (stereo partly drawn) [Formula 9, (2S,3aR,3cS,4aR,5S,5aS,7S,8bR,9R,10aR)-5,5a-dihydroxy-4a-(hydroxymethyl)-7,9-dimethyl-2-phenyl-10a-(prop-1-en-2-yl)dodecahydro-6H-2,8b-epoxyoxireno[2″,3″:6′,7′]azuleno[5′,4′:3,4]benzo[1,2-d][1,3]dioxol-6-one]
IC50 [2, 4]: 1600 ± 370 nM | Nurr1 activity (luciferase), multiple of 0.1% DMSO control [3, 9]: 1.5 | Nurr1 activity (luciferase), multiple of 0.1% DMSO control [3, 10]: 1.7 | Nurr1 activity (luciferase), multiple of 0.1% DMSO control [3, 11]: 2.4

Structure (SMILES): C=C(C)[C@]12C[C@@H](C)[C@@]34OC(c5ccccc5)(O[C@@H]1C3[C@@H]1O[C@]1(CO)[C@@H](O)[C@]13OC(=O)O[C@H]1[C@@H](C)CC43)O2 (some centres unmarked) [Formula 10, genkwanin I]
Nurr1 activity (luciferase), multiple of 0.1% DMSO control ([1]; High concentration = 100 μM (Table 1)): 1.1 | Nurr1 activity (luciferase), multiple of 0.1% DMSO control ([1]; Low concentration = 1 μM (Table 1)): 1.8 | Nurr1 activity (luciferase), multiple of 0.1% DMSO control ([1]; Mid concentration = 10 μM (Table 1)): 1.9 | IC50 [2, 4]: 7790 ± 910 nM

IC50 [2, 4]: 21300 ± 480 nM
Structure (SMILES): CN(C)c1ccc(O)c2c1C[C@H]1C[C@H]3[C@H](N(C)C)C(O)=C(C(N)=O)C(=O)[C@@]3(O)C(O)=C1C2=O [Minocycline, reference compound]

Structure (SMILES): C=C(C)[C@]12C[C@@H](C)[C@@]34O[C@](c5ccccc5)(O[C@@H]1C3[C@@H]1O[C@]1(CO)[C@@H](O)[C@@]1(O)C4C[C@H](C)[C@@H]1OC(=O)/C=C/C=C/CCCCC)O2 (stereo partly drawn) [compound 12, (2S,3aR,3cS,4aR,5S,5aS,6S,7S,8bR,9R,10aR)-5,5a-dihydroxy-4a-(hydroxymethyl)-7,9-dimethyl-2-phenyl-10a-(prop-1-en-2-yl)dodecahydro-6H-2,8b-epoxyoxireno[2″,3″:6′,7′]azuleno[5′,4′:3,4]benzo[1,2-d][1,3]dioxol-6-yl (2E,4E)-deca-2,4-dienoate]
Nurr1 activity (Table 3), relative to control treatment ([1]; 0.03 μM): 1.4 ± 0.18 | Nurr1 activity (Table 3), relative to control treatment ([1]; 0.1 μM): **1.29 ± 0.04 | Nurr1 activity (Table 3), relative to control treatment ([1]; 0.3 μM): *1.33 ± 0.06 | Nurr1 activity (Table 3), relative to control treatment ([1]; 1 μM): *1.62 ± 0.21 | IC50 ([2]; BV-2 cells, LPS 24 hours, nitrite by Griess reagent, read-out: IC50, inhibition of nitric oxide production (Table 5)): 2300 nM

Structure (SMILES): C=C(C)[C@@]12O[C@@]3(/C=C/C=C/CCCCC)O[C@@H]1[C@@H]1[C@@H]4O[C@]4(CO)[C@@H](O)[C@]4(O)C(=O)C(C)=C[C@H]4[C@@]1(O3)[C@H](C)[C@H]2OC(C)=O [compound 15, prostratin Q]
Nurr1 activity (Table 3), relative to control treatment ([1]; 0.03 μM): 1.17 ± 0.22 | Nurr1 activity (Table 3), relative to control treatment ([1]; 0.1 μM): 1.28 ± 0.35 | Nurr1 activity (Table 3), relative to control treatment ([1]; 0.3 μM): **1.59 ± 0.08 | Nurr1 activity (Table 3), relative to control treatment ([1]; 1 μM): *2.12 ± 0.37 | IC50 ([2]; BV-2, 24 h, read-out: IC50, inhibition of nitric oxide production (Table 5)): 3730 nM
